Results taken from article PMC4965013, “Open Source Drug Discovery with the Malaria Box Compound Collection for Neglected Diseases and Beyond” (PLoS Pathogens, 2016).

What was measured:
P. falciparum = assay: EC50 listed in S2 Table Metabolomics (used to set the concentration tested); assay type: cell-based; settings: Plasmodium falciparum; EC50 used for Factor_XEC50 in metabolomics; read-out: EC50_nM
[1] = system: P. falciparum 3D7 trophozoites; assay: Metabolomic fingerprint profiling LC-MS; assay type: cell-based, Plasmodium falciparum; design: UDP-D-glucose / ADP-D-glucose: unit not given here; settings: for Acetyllysine / N-acetyl-L-ornithine / N-carbamoyl-L-aspartate / NADPH / dAMP / dCMP / dTDP / dTMP / dTTP / dihydroorotate / orotate / DLH / DLS/SDL/SID / PD / PEE / PVNF / 3-phosphoglycerate / ADP-D-glucose / ATP / CDP / D-sedoheptulose-1/7-phosphate / FAD / GMP / NAD+ / NADP+ / Octoluse Bisphosphate / Pyroglutamic acid / UDP-D-glucose / UDP-D-glucuronate / UDP-N-acetyl-glucosamine / UDP / UMP / UTP / a-ketoglutarate / citrate/isocitrate / cytidine / dATP / dGMP/AMP / fumarate / glucose-1/6-phosphate / glycerate / guanine / guanosine / hypoxanthine / indole / inosine / nicotinate / ornithine / phosphoenolpyruvate / pyruvate / ribose-phosphate / sarcosine/alanine / sn-glycerol-3-phosphate / succinate/methylmalonic acid / uridine / xanthosine: S2 Table Metabolomics; for Acetyllysine: metabolite Acetyllysine; for N-acetyl-L-ornithine: metabolite N-acetyl-L-ornithine; for N-carbamoyl-L-aspartate: metabolite N-carbamoyl-L-aspartate; for NADPH: metabolite NADPH; for dAMP: metabolite dAMP; for dCMP: metabolite dCMP; for dTDP: metabolite dTDP; for dTMP: metabolite dTMP; for dTTP: metabolite dTTP; for dihydroorotate: metabolite dihydroorotate; for orotate: metabolite orotate; for DLH: peptide DLH; for DLS/SDL/SID: peptide DLS/SDL/SID; for PD: peptide PD; for PEE: peptide PEE; for PVNF: peptide PVNF; for 3-phosphoglycerate: metabolite 3-phosphoglycerate; for ADP-D-glucose: metabolite ADP-D-glucose; for ATP: metabolite ATP; for CDP: metabolite CDP; for CDP / D-sedoheptulose-1/7-phosphate / GMP / Octoluse Bisphosphate / UDP / UMP / UTP / citrate/isocitrate / dGMP/AMP / fumarate / glucose-1/6-phosphate / glycerate / guanine / guanosine / inosine / pyruvate / sarcosine/alanine / succinate/methylmalonic acid / uridine / xanthosine: change in metabolite level after compound treatment; for D-sedoheptulose-1/7-phosphate: metabolite D-sedoheptulose-1/7-phosphate; for FAD: metabolite FAD; for GMP: metabolite GMP; for NAD+: metabolite NAD+; for NADP+: metabolite NADP+; for Octoluse Bisphosphate: metabolite Octoluse Bisphosphate; for Pyroglutamic acid: metabolite Pyroglutamic acid; for UDP-D-glucose: metabolite UDP-D-glucose; for UDP-D-glucuronate: metabolite UDP-D-glucuronate; for UDP-N-acetyl-glucosamine: metabolite UDP-N-acetyl-glucosamine; for UDP: metabolite UDP; for UMP: metabolite UMP; for UTP: metabolite UTP; for a-ketoglutarate: metabolite a-ketoglutarate; for citrate/isocitrate: metabolite citrate/isocitrate; for cytidine: metabolite cytidine; for dATP: metabolite dATP; for dGMP/AMP: metabolite dGMP/AMP; for fumarate: metabolite fumarate; for glucose-1/6-phosphate: metabolite glucose-1/6-phosphate; for glycerate: metabolite glycerate; for guanine: metabolite guanine; for guanosine: metabolite guanosine; for hypoxanthine: metabolite hypoxanthine; for indole: metabolite indole; for inosine: metabolite inosine; for 2_3-Diphosphoglyceric acid / 4-phosphopantothenate / 6-phospho-D-gluconate / FMN / IMP / Pyrophosphate / Sedoheptoluse bisphosphate / cyclic-AMP / glutathione disulfide / lactate / myo-inositol: metabolite level change after treatment; for nicotinate: metabolite nicotinate; for ornithine: metabolite ornithine; for phosphoenolpyruvate: metabolite phosphoenolpyruvate; for pyruvate: metabolite pyruvate; for ribose-phosphate: metabolite ribose-phosphate; for sarcosine/alanine: metabolite sarcosine/alanine; for sn-glycerol-3-phosphate: metabolite sn-glycerol-3-phosphate; for succinate/methylmalonic acid: metabolite succinate/methylmalonic acid; for uridine: metabolite uridine; for xanthosine: metabolite xanthosine

Molecule `Cc1cc(Nc2ccc(C)c(Cl)c2)n2nc(C(F)(F)F)nc2n1` [MMV665874] has an EC50 (P. falciparum) of 6.71 nM, an Acetyllysine [1] of -0.4022 and a N-acetyl-L-ornithine [1] of -0.2526. For the same molecule, the N-carbamoyl-L-aspartate [1] was 4.028, the NADPH [1] was 0.1752 and the dAMP [1] was -0.05231. For the same molecule, the dCMP [1] was -0.05814, the dTDP [1] was -1.343 and the dTMP [1] was -1.0853. The dTTP [1] was -1.254, the dihydroorotate [1] was 5.397 and the orotate [1] was 0.2167. It also gave a DLH [1] of -0.1943, a DLS/SDL/SID [1] of -0.1199 and a PD [1] of -0.005549. For the same molecule, the PEE [1] was -0.4065, the PVNF [1] was -0.2835 and the 3-phosphoglycerate [1] was 0.03547. For the same molecule, the ADP-D-glucose [1] was 0.02005, the ATP [1] was 0.1462 and the CDP [1] was -0.8722. The D-sedoheptulose-1/7-phosphate [1] was -0.2118, the FAD [1] was -0.01762 and the GMP [1] was 0.4662. For the same molecule, the “NAD+” value [1] was -0.1, the “NADP+” value [1] was -0.1197 and the “Octoluse Bisphosphate” value [1] was 0.03302. For the same molecule, the Pyroglutamic acid [1] was 0.08116, the UDP-D-glucose [1] was -0.2063 and the UDP-D-glucuronate [1] was -0.109. It also gave a UDP-N-acetyl-glucosamine [1] of -0.4453, a UDP [1] of -1.835 and a UMP [1] of -1.099. For the same molecule, the UTP [1] was -1.702, the a-ketoglutarate [1] was -0.1317 and the citrate/isocitrate [1] was -0.1582. For the same molecule, the cytidine [1] was -0.03725, the dATP [1] was 0.3143 and the dGMP/AMP [1] was 0.07446. The fumarate [1] was -0.3892, the glucose-1/6-phosphate [1] was 0.2173 and the glycerate [1] was 0.07615. It also gave a guanine [1] of 0.251, a guanosine [1] of 0.7775 and a hypoxanthine [1] of -0.1073. The indole [1] was -0.01704, the inosine [1] was -0.02522 and the 2_3-Diphosphoglyceric acid [1] was 0.1914. For the same molecule, the 4-phosphopantothenate [1] was -0.3242, the 6-phospho-D-gluconate [1] was 0.01162 and the FMN [1] was -0.4401. It also gave an IMP [1] of -0.2175, a Pyrophosphate [1] of 0.07871 and a Sedoheptoluse bisphosphate [1] of 0.06707. The cyclic-AMP [1] was -0.1282, the glutathione disulfide [1] was -0.03556 and the lactate [1] was -0.043. For the same molecule, the myo-inositol [1] was -0.09181, the nicotinate [1] was -0.01808 and the ornithine [1] was 0.04606. It also gave a phosphoenolpyruvate [1] of 0.07297, a pyruvate [1] of 0.2233 and a ribose-phosphate [1] of 0.2644. The sarcosine/alanine [1] was 0.1358, the sn-glycerol-3-phosphate [1] was 0.2659 and the succinate/methylmalonic acid [1] was -1.091. For the same molecule, the uridine [1] was -0.8568 and the xanthosine [1] was -0.03941.
Molecule `CSC1=NC(=Nc2c(C)cccc2C)C2(CCC(C(C)(C)C)CC2)N1c1ccc(Cl)cc1` (stereo not drawn) [MMV666596] has an EC50 (P. falciparum) of 135 nM, an Acetyllysine [1] of 0.05532 and a N-acetyl-L-ornithine [1] of 0.3033. The N-carbamoyl-L-aspartate [1] was 4.209, the NADPH [1] was 0.4611 and the dAMP [1] was -1.695. It also gave a dCMP [1] of -0.02373, a dTDP [1] of -0.6033 and a dTMP [1] of -0.6441. For the same molecule, the dTTP [1] was -0.4211, the dihydroorotate [1] was 4.453 and the orotate [1] was -0.2494. It also gave a DLH [1] of 0.07485, a DLS/SDL/SID [1] of 0.1058 and a PD [1] of 0.3494. For the same molecule, the PEE [1] was 0.3362, the PVNF [1] was -0.2122 and the 3-phosphoglycerate [1] was 0.06499. For the same molecule, the ADP-D-glucose [1] was 0.1455, the ATP [1] was -0.04037 and the CDP [1] was -0.436. It also gave a D-sedoheptulose-1/7-phosphate [1] of -0.1476, an FAD [1] of 0.02917 and a GMP [1] of -0.07998. The “NAD+” value [1] was -0.07608, the “NADP+” value [1] was 0.2106 and the “Octoluse Bisphosphate” value [1] was -0.01707. It also gave a Pyroglutamic acid [1] of -0.1892, a UDP-D-glucose [1] of -0.01772 and a UDP-D-glucuronate [1] of -0.05432. For the same molecule, the UDP-N-acetyl-glucosamine [1] was -0.1657, the UDP [1] was -0.847 and the UMP [1] was -0.5062. It also gave a UTP [1] of -0.6788, an a-ketoglutarate [1] of -0.3441 and a citrate/isocitrate [1] of -0.1956. It also gave a cytidine [1] of -0.05016, a dATP [1] of 0.3608 and a dGMP/AMP [1] of -0.2908. For the same molecule, the fumarate [1] was 0.4042, the glucose-1/6-phosphate [1] was -0.3631 and the glycerate [1] was -0.704. It also gave a guanine [1] of -0.05943, a guanosine [1] of 0.2542 and a hypoxanthine [1] of -0.3496. The indole [1] was -0.1947, the inosine [1] was -0.267 and the 2_3-Diphosphoglyceric acid [1] was 0.06366. The 4-phosphopantothenate [1] was -0.3594, the 6-phospho-D-gluconate [1] was 0.1204 and the FMN [1] was 0.0335. The IMP [1] was -0.08883, the Pyrophosphate [1] was 0.1408 and the Sedoheptoluse bisphosphate [1] was 0.09241. It also gave a cyclic-AMP [1] of -0.008887, a glutathione disulfide [1] of 0.04205 and a lactate [1] of -0.4137. For the same molecule, the myo-inositol [1] was -0.699, the nicotinate [1] was -0.1654 and the ornithine [1] was 0.2004. It also gave a phosphoenolpyruvate [1] of 0.0459, a pyruvate [1] of -0.8143 and a ribose-phosphate [1] of 0.02121. The sarcosine/alanine [1] was -0.1953, the sn-glycerol-3-phosphate [1] was 0.3928 and the succinate/methylmalonic acid [1] was 0.09915. It also gave a uridine [1] of -0.4544 and a xanthosine [1] of -0.03694.
In the case of `CCOc1ccc(-c2nonc2NC(=O)c2cccc(C)c2)cc1OCC` [MMV665805], the EC50 (P. falciparum) is reported as 117 nM, the Acetyllysine [1] is reported as -2.655 and the N-acetyl-L-ornithine [1] is reported as -3.165. The N-carbamoyl-L-aspartate [1] was -1.056, the NADPH [1] was 0.0179 and the dAMP [1] was -0.2659. For the same molecule, the dCMP [1] was -0.0001746, the dTDP [1] was -0.4156 and the dTMP [1] was 0.168. The dTTP [1] was -1.808, the dihydroorotate [1] was -0.8461 and the orotate [1] was -0.316. It also gave a DLH [1] of -3.43, a DLS/SDL/SID [1] of -2.376 and a PD [1] of -4.256. The PEE [1] was -1.272, the PVNF [1] was -3.291 and the 3-phosphoglycerate [1] was -0.4238. For the same molecule, the ADP-D-glucose [1] was -0.07023, the ATP [1] was -0.872 and the CDP [1] was 0.2433. The D-sedoheptulose-1/7-phosphate [1] was 0.2738, the FAD [1] was -1.216 and the GMP [1] was -1.407. The “NAD+” value [1] was -0.2783, the “NADP+” value [1] was 0.09325 and the “Octoluse Bisphosphate” value [1] was -2.628. It also gave a Pyroglutamic acid [1] of 0.2488, a UDP-D-glucose [1] of -0.08929 and a UDP-D-glucuronate [1] of 0.1004. For the same molecule, the UDP-N-acetyl-glucosamine [1] was -0.1333, the UDP [1] was 0.1418 and the UMP [1] was -2.433. The UTP [1] was -1.276, the a-ketoglutarate [1] was 0.06268 and the citrate/isocitrate [1] was -0.7764. For the same molecule, the cytidine [1] was -0.5056, the dATP [1] was -1.548 and the dGMP/AMP [1] was 0.3312. The fumarate [1] was -2.16, the glucose-1/6-phosphate [1] was -1.496 and the glycerate [1] was -1.128. It also gave a guanine [1] of -1.378, a guanosine [1] of -1.192 and a hypoxanthine [1] of 0.2303. For the same molecule, the indole [1] was 0.06669, the inosine [1] was -2.254 and the 2_3-Diphosphoglyceric acid [1] was -1.518. The 4-phosphopantothenate [1] was -1.982, the 6-phospho-D-gluconate [1] was -1.236 and the FMN [1] was -1.528. For the same molecule, the IMP [1] was -1.238, the Pyrophosphate [1] was -1.477 and the Sedoheptoluse bisphosphate [1] was -1.741. It also gave a cyclic-AMP [1] of -2.892, a glutathione disulfide [1] of -1.641 and a lactate [1] of -4.838. The myo-inositol [1] was -5.977, the nicotinate [1] was -0.4798 and the ornithine [1] was -0.1601. The phosphoenolpyruvate [1] was 0.09842, the pyruvate [1] was -2.577 and the ribose-phosphate [1] was -0.0001746. The sarcosine/alanine [1] was -2.25, the sn-glycerol-3-phosphate [1] was -0.6654 and the succinate/methylmalonic acid [1] was -1.698. For the same molecule, the uridine [1] was -2.032 and the xanthosine [1] was 0.4761.
